Reference: US10793557B2, “Sting agonist compounds” (Merck Sharp & Dohme Corp., priority 2018, dated 2020)

Legend:
[1] = molecular target: T1, full-length HAQ STING (Homo sapiens, UniProt Q86WV6, G230A/H232R/R293Q/R71H); experiment: 3H-cGAMP filtration binding assay (HAQ STING); details: competition with tritiated cGAMP, HAQ STING membrane
T1 construct: AviTag (after GG linker) (C); HRV3C cleavage site (after GS linker) (C); HIS8 (C); made in house; host or cells: Trichoplusia ni (Hi-Five) insect cells infected with baculovirus (virus generated and amplified in Sf21 cells); used as a washed membrane preparation
In short: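 Hi-Five (T. ni) membranes overexpressing the STING variant (2.2 ug/ml working) preincubated with compound 60 min at RT in PBS, then [3H]cGAMP (8 nM working stock) added for 60 min at RT. Bound radioactivity captured on GF/B filters and counted by scintillation; EC50 from 4-parameter fit of control-normalized activity.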

[2] = molecular target: T2, full-length WT STING (Homo sapiens, UniProt Q86WV6, H232R); experiment: 3H-cGAMP filtration binding assay (WT STING); details: competition with tritiated cGAMP, WT STING membrane
T2 construct: AviTag (after gg linker) (C); HRV3C cleavage site (after gs linker) (C); HIS8 (C); made in house; host or cells: Trichoplusia ni (Hi-Five) insect cells infected with baculovirus (virus generated and amplified in Sf21 cells); used as a washed membrane preparation
In short: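 EC50 values come from 4-parameter fits of remaining filter-bound tritium versus log concentration (10-point, 1:3 dilution). Insect-cell membranes carrying full-length WT STING were incubated 60 min at RT with compound and tritiated cGAMP (16 nM working stock) before filtration.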

[3] = tested on: secretion of interferon-beta from THP1 cells; experiment: IFN-β secretion in THP1 cell culture (5 h); format: cell-based; details: Homo sapiens, THP-1, 5 h, compound at 30 μM, 30 uM cGAMP = 100%, read-out: % Effect at 30 μM relative to 2′3′-cGAMP
In short: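 IFN-β in supernatant measured by AlphaLISA after a 5 h, 37 °C incubation of THP1 cells with compound (10 concentrations, 30000 down to 1.5 nM, 0.3% DMSO) in low-serum RPMI. Values scaled between DMSO and 30 uM cGAMP controls; 4-parameter curve fit yields EC50.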

T1 sequence (Q86WV6 with tags, fused parts or gaps R71H/G230A/H232R/R293Q): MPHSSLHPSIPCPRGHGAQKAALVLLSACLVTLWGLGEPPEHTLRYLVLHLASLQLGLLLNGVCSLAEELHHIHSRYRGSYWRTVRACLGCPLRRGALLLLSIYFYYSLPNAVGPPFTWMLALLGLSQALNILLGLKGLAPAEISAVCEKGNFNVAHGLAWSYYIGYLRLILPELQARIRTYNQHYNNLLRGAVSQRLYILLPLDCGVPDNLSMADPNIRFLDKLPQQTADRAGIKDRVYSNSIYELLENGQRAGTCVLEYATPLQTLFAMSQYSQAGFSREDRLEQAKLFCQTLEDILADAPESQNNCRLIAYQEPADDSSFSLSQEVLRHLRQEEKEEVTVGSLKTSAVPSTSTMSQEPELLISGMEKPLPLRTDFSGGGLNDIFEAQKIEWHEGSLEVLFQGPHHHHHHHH
T2 sequence (Q86WV6 with tags, fused parts or gaps H232R): as the sequence (Q86WV6 with tags, fused parts or gaps R71H/G230A/H232R/R293Q) above, with H71R, A230G, Q293R counted along it

Row | SMILES | EC50 [1] | EC50 [2] | activation at 30 µM [3]
1 | COc1cc2sc(C(=O)CCC(=O)O)cc2c(F)c1OCCCOc1c(OC)cc2sc(C(=O)C[C@H](C)C(=O)O)cc2c1F [Example 64, (S)-4-(5-(3-((2-(3-carboxypropanoyl)-4-fluoro-6-methoxybenzo[b]thiophen-5-yl)oxy)propoxy)-4-fluoro-6-methoxybenzo[b]thiophen-2-yl)-2-methyl-4-oxobutanoic acid] | 2 nM | 4 nM | 58%
2 | COc1cc2sc(C(=O)CCC(=O)O)cc2c(F)c1OCCOc1c(OC)cc2sc(C(=O)CCC(=O)O)cc2c1F [Example 65, 4,4′-((ethane-1,2-diylbis(oxy))bis(4-fluoro-6-methoxybenzo[b]thiophene-5,2-diyl))bis(4-oxobutanoic acid)] | 1 nM | 1 nM | 105%
3 | COc1cc2sc(C(=O)C[C@@H](C)C(=O)O)cc2cc1OCCOc1c(OC)cc2sc(C(=O)C[C@H](C)C(=O)O)cc2c1F [Example 66, (R)-4-(5-(2-((2-((S)-3-carboxybutanoyl)-4-fluoro-6-methoxybenzo[b]thiophen-5-yl)oxy)ethoxy)-6-methoxybenzo [b]thiophen-2-yl)-2-methyl-4-oxobutanoic acid] | 4 nM | 20 nM | 103%
4 | COc1cc2sc(C(=O)C[C@H](C)C(=O)O)cc2cc1OCCOc1c(OC)cc2sc(C(=O)C[C@H](C)C(=O)O)cc2c1F [Example 67, (S)-4-(5-(2-((2-((S)-3-carboxybutanoyl)-4-fluoro-6-methoxybenzo[b]thiophen-5-yl)oxy)ethoxy)-6-methoxybenzo[b]thiophen-2-yl)-2-methyl-4-oxobutanoic acid] | 40 nM | 45 nM | 92%
5 | COc1cc2sc(C(=O)C[C@H](C)C(=O)O)cc2cc1OCCCOc1c(OC)cc2sc(C(=O)C[C@H](C)C(=O)O)cc2c1F [Example 69, (S)-4-(5-(3-((2-((S)-3-carboxybutanoyl)-4-fluoro-6-methoxybenzo[b]thiophen-5-yl)oxy)propoxy)-6-methoxybenzo[b]thiophen-2-yl)-2-methyl-4-oxobutanoic acid] | 1 nM | 2 nM | 46%
6 | COc1cc2cc(C(=O)C[C@H](C)C(=O)O)sc2cc1OCCCOc1c(OC)cc2sc(C(=O)C[C@H](C)C(=O)O)cc2c1F [Example 70, (S)-4-(6-(3-((2-((S)-3-carboxybutanoyl)-4-fluoro-6-methoxybenzo[b]thiophen-5-yl)oxy)propoxy)-5-methoxybenzo[b]thiophen-2-yl)-2-methyl-4-oxobutanoic acid] | 1 nM | 1 nM | 47%
7 | COc1cc2sc(C(=O)C[C@H](C)C(=O)O)cc2cc1OCCCOc1c(OC)cc2sc(C(=O)CC(C)(C)C(=O)O)cc2c1F [Example 71, (S)-4-(5-(3-((2-(3-carboxybutanoyl)-6-methoxybenzo[b]thiophen-5-yl)oxy)propoxy)-4-fluoro-6-methoxybenzo[b]thiophen-2-yl)-2,2-dimethyl-4-oxobutanoic acid] | 3 nM | 2 nM | 15%
8 | COc1cc2sc(C(=O)C[C@H](C)C(=O)O)cc2cc1OCCCOc1c(OC)cc2sc(C(=O)CCC(=O)O)cc2c1F [Example 72, (S)-4-(5-(3-((2-(3-carboxypropanoyl)-4-fluoro-6-methoxybenzo[b]thiophen-5-yl)oxy)propoxy)-6-methoxybenzo[b]thiophen-2-yl)-2-methyl-4-oxobutanoic acid] | 1 nM | 2 nM | 77%
9 | COc1cc2cc(C(=O)C[C@H](C)C(=O)O)sc2cc1OCCCOc1c(OC)cc2sc(C(=O)CCC(=O)O)cc2c1F [Example 73, (S)-4-(6-(3-((2-(3-carboxypropanoyl)-4-fluoro-6-methoxybenzo[b]thiophen-5-yl)oxy)propoxy)-5-methoxybenzo[b]thiophen-2-yl)-2-methyl-4-oxobutanoic acid] | 1 nM | 4 nM | 67%
